Experimental data from patent US20230285570A1, “THERAPEUTICALLY USEFUL CURE-PRO MOLECULES FOR E3 LIGASE MEDIATED DEGRADATION OF PROTEINS, AND METHODS OF MAKING AND USING THEM” (CORNELL UNIVERSITY, priority 2020, published 2023).
“Also recorded” adds a separate entry of the source.

Tests used:
BRD4 [1] = biological target: T1, BRD4 (Homo sapiens, UniProt O60885); test: Summary of BRD4 degradation by CURE-PRO pairs, estimated from Western Blot or WES; format: cell-based; set-up: endogenous in cells; conditions: for Degradation of BRD4, combination with CRBN ligand 8066: Table 1, aryl-boronic acid BRD4 ligand + 8066; for Degradation of BRD4, combination with CRBN ligand 8047: Table 1, aryl-boronic acid BRD4 ligand + 8047; for Degradation of BRD4, combination with CRBN ligand 8046: Table 1, aryl-boronic acid BRD4 ligand + 8046; for Degradation of BRD4, combination with VHL ligand 8305: Table 3, aryl-boronic acid BRD4 ligand + 8305
Experimental: (§1) Namalwa, Ramosm HeLa, MCF7, or HT29 HCT116 cells (2.5-3×10^6) were treated for 24 hours with the indicated compounds solubilized in DMSO. The cells were washed in ice-cold PBS and were then lysed in RIPA lysis buffer (150 mM NaCl, 5 mM EDTA, 1% NP-40, 0.5% sodium deoxycholate, 0.1% SDS, 50 mM Tris, pH 8.0.) with Roche protease inhibitor complete cocktail and phosphatase inhibitors (10 mM sodium fluoride, 10 mM sodium pyrophosphate, 1 mM sodium orthovanadate and 20 mM β-glycerophosphate). The total protein concentrations were determined by Bradford Protein Assay (Pierce) and 10-20 μg of protein was loaded onto 4-15% Tris-Glycine gradient gels (Biorad). After standard gel electrophoresis, the separated proteins were transferred to PVDF membrane by wet transfer. The immunoblots were then blocked for 1 hour in 5% skim milk in TBST or 5% BSA in TBST, according to manufacturer's instructions, before an overnight incubation at 4° C. with indicated antibodies and membranes. Membranes were then incubated with the appropriate horseradish peroxidase-conjugated secondary antibodies (1:5,000 dilution) for 1 h at room temperature and the bands were visualized using the Clarity Max Western ECL Substrate (Biorad) and the ChemiDoc Imaging System (Biorad). Signal was detected with ECL Western Blotting Substrate (Pierce) and X-ray film processed with a Konica SRX-101 X-ray film processor or captured by Bio-Rad's Chemidoc Imaging system.
WES Simple analysis was performed on WES system (ProteinSimple-Biotechne) according to the manufacturer's instructions. Total protein concentrations of cell lysates were determined by the Pierce BCA kit (Thermo Fisher). 3 μL of 0.3 μg/μL of the protein lysate was loaded onto a 12- to 230-kDa WES assay plate (ProteinSimple) where 300 nL sample was withdrawn through a capillary, subjected to electrophoretic separation of proteins by size, and followed by the simultaneous, HRP-based detection of proteins using the Anti-Rabbit Detection Module (Proteinsimple: #DM-001). The electropherograms were checked then the automatic peak detection was manually corrected if it was required.
A black check mark indicates efficacy of 30% to 70% or higher protein degradation.

BRD4 [2] = biological target: T1, BRD4; test: CURE-PRO-mediated BRD4 degradation in HeLa cells, Western blot; format: cell-based; set-up: endogenous in cells; host or cells: HeLa; conditions: 24 h
Experimental: All cell lines were purchased from ATCC or DSMZ and grown at 37° C. with 5% CO2. Human HeLa cells were cultured in complete growth medium (Dulbecco's modified Eagle's medium (DMEM) supplemented with 10% FBS); MCF7 cells were cultured in complete growth medium (Dulbecco's modified Eagle's medium (DMEM) supplemented with 10% FBS and 0.01 mg/ml human recombinant insulin (Sigma Aldrich); Namalwa and Ramos cells were cultured in complete growth medium (RPMI 1640 medium supplemented with 10% FBS); HCT116 and HT29 cells were cultured in complete growth medium (McCoy's 5a Medium supplemented with 10% FBS). For cellular degradation of BRD4 studies cells were seeded in a 12-well plate at 70-80% confluency, allowed to attach overnight, and incubated with the indicated compounds for the indicated time. When indicated, a 15-minute pretreatment with 10 μM pomalidomide, 10 μM VHL298, 10 μM Nutlin3a, 1 μM MG-132 or 1 μM Carfilzomib was performed before the addition of CURE-PROs. For washout studies, after CURE-PRO treatment, media was aspirated and incubated with complete medium for the indicated time before lysis.
as §1
HeLa cells (2.5×10^6) were treated for 24 hours with the sample compounds solubilized in DMSO. Compounds were added at 1-10 μM each. Standardized protein samples were electrophoresed and imaged as described in the immunoblotting description above. FIGS. 6-18 depicts the CURE-PRO-mediated BRD4 degradation for BRD monomers (JQ1 derivatives comprising of catechol linkers), and CRBN ligands, 8048 and 8049 (pomalidomide derivatives comprising boronic acid linkers) combined in a 1:1 ratio.
HeLa cells (2.5×10^6) were treated for 24 hours with the compounds solubilized in DMSO. The compounds were added at 10 μM each. Standardized protein samples were electrophoresed and imaged as described in the immunoblotting section above. FIGS. 23-27 depicts the CURE-PRO-mediated BRD4 degradation for BRD monomers (JQ1 derivatives comprising of boronic acid linkers), and CRBN ligands, 8046, 8047 and 8066 (pomalidomide derivatives comprising diol linkers) combined in a 1:1 ratio.
HeLa cells (2.5×10^6) were treated for 24 hours with the compounds solubilized in DMSO. Compounds were added at 10 μM and 100 μM each. Standardized protein samples were electrophoresed and imaged as described in the immunoblotting section above.
HeLa cells (2.5×10^6) were treated for 24 hours with the compounds solubilized in DMSO. Compounds were added at 1 nM-1 μM each. […]

[3] = co-treated 1:1 with CRBN ligand 8046, HeLa, 10 μM each
[4] = co-treated 1:1 with CRBN ligand 8047, HeLa, 10 μM each
[5] = co-treated 1:1 with CRBN ligand 8066, HeLa, 10 μM each

SMILES | Degradation of BRD4, combination with CRBN ligand 8066 (BRD4 [1]) | Degradation of BRD4, combination with CRBN ligand 8047 (BRD4 [1]) | BRD4 degradation (BRD4 [2]; [4]) | further results
COc1ccc2c(c1)C(c1ccc(Cl)cc1)=N[C@@H](CC(=O)NCCCCCNC(=O)c1ccc(B(O)O)cc1)c1nnc(C)n1-2 [BRD- E07] | √ (A black check mark indicates efficacy of 30% to 70% or higher protein degradation) |  |  | 
COc1ccc2c(c1)C(c1ccc(Cl)cc1)=N[C@@H](CC(=O)NCCNC(=O)Cc1cccc(B(O)O)c1)c1nnc(C)n1-2 [BRD- E38] |  | √ (A black check mark indicates efficacy of 30% to 70% or higher protein degradation) |  | 
CCNC(=O)C[C@@H]1N=C(c2ccc(Cl)cc2)c2cc(OCCOCCNC(=O)c3ccc(B(O)O)cc3)ccc2-n2c(C)nnc21 [BRD- E39] |  |  |  | Degradation of BRD4, combination with CRBN ligand 8046 (BRD4 [1]): √ (A black check mark indicates efficacy of 30% to 70% or higher protein degradation)
CCNC(=O)C[C@@H]1N=C(c2ccc(OCc3ccc(B(O)O)cc3)cc2)c2cc(OC)ccc2-n2c(C)nnc21 [BRD- E54] |  |  |  | Degradation of BRD4, combination with VHL ligand 8305 (BRD4 [1]): √ (A black check mark indicates efficacy of 30% to 70% or higher protein degradation)
CCNC(=O)C[C@@H]1N=C(c2ccc(Cl)cc2)c2cc(OCCOCCOCCNC(=O)c3ccc(O)c(O)c3)ccc2-n2c(C)nnc21 [BRD- N40] |  |  |  | Degradation of BRD4, combination with VHL ligand 8297 (BRD4 [1]; Table 6, aromatic 1,2-diol BRD4 ligand + 8297): √ (A black check mark indicates efficacy of 30% to 70% or higher protein degradation)
COc1ccc2c(c1)C(c1ccc(Cl)cc1)=N[C@@H](CC(=O)Nc1ccc(O)c(O)c1)c1nnc(C)n1-2 [BRD- N68] |  |  |  | Degradation of BRD4, combination with CRBN ligand 8048 (BRD4 [1]; Table 4, aromatic 1,2-diol BRD4 ligand + 8048): √ (A black check mark indicates efficacy of 30% to 70% or higher protein degradation)
COc1ccc2c(c1)C(c1ccc(Cl)cc1)=N[C@@H](CC(=O)NCCCNC(=O)c1cccc(B(O)O)c1)c1nnc(C)n1-2 [BRD-E4] | √ (A black check mark indicates efficacy of 30% to 70% or higher protein degradation) | √ (A black check mark indicates efficacy of 30% to 70% or higher protein degradation) | causes degradation of BRD4; also recorded: Degradation is noted | Degradation of BRD4, combination with CRBN ligand 8046 (BRD4 [1]): √ (A black check mark indicates efficacy of 30% to 70% or higher protein degradation); BRD4 degradation (BRD4 [2]; [3]): causes degradation of BRD4; also recorded: Degradation is noted; BRD4 degradation (BRD4 [2]; [5]): causes degradation of BRD4; also recorded: Degradation is noted
COc1ccc2c(c1)C(c1ccc(Cl)cc1)=N[C@@H](CC(=O)NCCCCNC(=O)c1ccc(B(O)O)cc1)c1nnc(C)n1-2 [BRD-E5] | √ (A black check mark indicates efficacy of 30% to 70% or higher protein degradation) | √ (A black check mark indicates efficacy of 30% to 70% or higher protein degradation) | causes degradation of BRD4; also recorded: Degradation is noted | BRD4 degradation (BRD4 [2]; [5]): causes degradation of BRD4; also recorded: Degradation is noted
COc1ccc2c(c1)C(c1ccc(Cl)cc1)=N[C@@H](CC(=O)NCc1cccc(B(O)O)c1)c1nnc(C)n1-2 [BRD-E10] |  | √ (A black check mark indicates efficacy of 30% to 70% or higher protein degradation) |  | Degradation of BRD4, combination with CRBN ligand 8046 (BRD4 [1]): √ (A black check mark indicates efficacy of 30% to 70% or higher protein degradation); Degradation of BRD4, combination with VHL ligand 8304 (BRD4 [1]; Table 3, aryl-boronic acid BRD4 ligand + 8304): √ (A black check mark indicates efficacy of 30% to 70% or higher protein degradation); BRD4 degradation (BRD4 [2]; 1:1 with CRBN ligand 8046, HeLa, 10 μM and 100 μM each): only demonstrated BRD4 degradation at 100 μM; BRD4 degradation (BRD4 [2]; 1:1 with CRBN ligand 8047, HeLa, 10 μM and 100 μM each): complete degradation at 10 μM
COc1ccc2c(c1)C(c1ccc(Cl)cc1)=N[C@@H](CC(=O)NCCNC(=O)Cc1ccc(B(O)O)cc1)c1nnc(C)n1-2 [BRD-E27, (4-(2-((2-(2-((4S)-6-(4-chlorophenyl)-8-methoxy-1-methyl-4H-benzo[f][1,2,4]triazolo[4,3-a][1,4]diazepin-4-yl)acetamido)ethyl)amino)-2-oxoethyl)phenyl)boronic Acid] |  | √ (A black check mark indicates efficacy of 30% to 70% or higher protein degradation) | causes degradation of BRD4 | 
COc1ccc2c(c1)C(c1ccc(Cl)cc1)=N[C@@H](CC(=O)NCCNC(=O)/C=C/c1cccc(B(O)O)c1)c1nnc(C)n1-2 [BRD-E30, (3-((E)-3-((2-(2-((4S)-6-(4-chlorophenyl)-8-methoxy-1-methyl-4H-benzo[f][1,2,4]triazolo[4,3-a][1,4]diazepin-4-yl)acetamido)ethyl)amino)-3-oxoprop-1-en-1-yl)phenyl)boronic acid] | √ (A black check mark indicates efficacy of 30% to 70% or higher protein degradation) | √ (A black check mark indicates efficacy of 30% to 70% or higher protein degradation) |  | 
CCNC(=O)C[C@@H]1N=C(c2ccc(Cl)cc2)c2cc(OCCOCCOCCNC(=O)c3cccc(B(O)O)c3)ccc2-n2c(C)nnc21 [BRD-E42] |  | √ (A black check mark indicates efficacy of 30% to 70% or higher protein degradation) | causes degradation of BRD4 | 
CCNC(=O)C[C@@H]1N=C(c2ccc(Cl)cc2)c2cc(OCCOCCOCCOCCNC(=O)c3ccc(B(O)O)cc3)ccc2-n2c(C)nnc21 [BRD-E43] | √ (A black check mark indicates efficacy of 30% to 70% or higher protein degradation) | √ (A black check mark indicates efficacy of 30% to 70% or higher protein degradation) | causes degradation of BRD4 | BRD4 degradation (BRD4 [2]; [5]): causes degradation of BRD4; also recorded: Degradation is noted
COc1ccc2c(c1)C(c1ccc(Cl)cc1)=N[C@@H](CC(=O)NCCOCCOCCNC(=O)c1ccc(B(O)O)cc1)c1nnc(C)n1-2 [BRD-E45] | √ (A black check mark indicates efficacy of 30% to 70% or higher protein degradation) |  |  | Degradation of BRD4, combination with VHL ligand 8305 (BRD4 [1]): √ (A black check mark indicates efficacy of 30% to 70% or higher protein degradation); BRD4 degradation (BRD4 [2]; [5]): causes degradation of BRD4
COc1ccc2c(c1)C(c1ccc(Cl)cc1)=N[C@@H](CC(=O)Nc1ccc(B(O)O)cc1)c1nnc(C)n1-2 [BRD-E74, (4-(2-((4S)-6-(4-chlorophenyl)-8-methoxy-1-methyl-4H-benzo[f][1,2,4]triazolo[4,3-a][1,4]diazepin-4-yl)acetamido)phenyl)boronic acid] |  |  | causes degradation of BRD4 | Degradation of BRD4, combination with CRBN ligand 8046 (BRD4 [1]): √ (A black check mark indicates efficacy of 30% to 70% or higher protein degradation); Degradation of BRD4, combination with MDM2 ligand 8314 (BRD4 [1]; Table 2, aryl-boronic acid BRD4 ligand + 8314): √ (A black check mark indicates efficacy of 30% to 70% or higher protein degradation); BRD4 degradation (BRD4 [2]; [3]): causes degradation of BRD4
